Data taken from patent publication US6608111B1, “Method for treating or preventing prostatic conditions” (Southern Illinois University Office of Research, …, priority 1998, dated 2003).
Entries after “also recorded” stand apart in the source; their conditions may differ.

Legend:
women = conditions: clinical; cited from earlier work
[1] = system: rats, cats, chicks, and guinea pigs; conditions: animals including rats; cited from earlier work
[2] = system: MCF-7 human mammary cancer cell line; conditions: human MCF-7 cells in culture; cited from earlier work
[3] = system: uterine cytosolic estrogen receptors (ER); conditions: competitive binding-inhibition, relative to E2; cited from earlier work
[4] = system: male and female Wistar rats; experiment: Experiment 2: chronic treatment of male and female rats, 5-6 weeks; format: in vivo, rat; conditions: for Food intake: n = 5
Description: Twenty-five male and 25 female Wistar rats, 7-8 weeks of age, were randomly assigned to groups of five animals, respectively, for treatment with vehicle only (V), estradiol (E), (±)-Z-BDDA, (+)-Z-BDDA, or (−)-Z-BDDA. Each animal in group V received a daily 0.1 cc injection of a 10% ethanol-90% olive oil solution; the other treatments received their respective compound as a daily 0.1 cc injection, e.g., 2.5 μg of compound/g of body weight, in a 10% ethanol-90% olive oil solution. A temperature of 21° C. and an artificial 12-h light-dark cycle were maintained in the animal room. All animals were maintained on standard chow in powdered form, the males for five weeks and the females for six weeks, then sacrificed after an overnight fast under i.p. pentobarbital anesthesia (50 mg/kg). Animal weight and food intake were measured weekly during the study and subsequent FER values were determined. During sacrifice, blood was collected (via cardiac puncture) for glucose, luteinizing hormone, prolactin and testosterone measurements. The amounts of luteinizing hormone, prolactin and testosterone were measured to help elucidate the target tissue of the respective compounds in male and female rats. Immediately following sacrifice the fat pads and reproductive organs were removed and weighed.
(§1) Experiments 1 and 2 employed a randomized design. All data were analyzed by one-way analysis of variance (ANOVA,)and post-hoc comparisons were made with Tukey pairwise comparisons test. Significance was confirmed at p≦0.05 (SYSTAT 7.0, SPSS INC., 1997), and all values are reported as means±standard error of the mean.

female mice = conditions: E2 5 g/animal/day, (±)-Z-BDDA 5, 50, and 500 g/animal/day, versus control group; cited from earlier work
[5] = even at 1000-times the estrogenic dosage; cited from earlier work
[6] = system: male and female Sprague-Dawley rats; experiment: Experiment 1: chronic treatment of male and female rats, 4 weeks; format: in vivo, rat; conditions: mean ± SEM; for Food intake: n = 5
Description: Twenty-five male and 25 female Sprague-Dawley rats, 9-10 weeks of age, were randomly assigned to groups of five animals, respectively, as a control group (no treatment) (C), for treatment with vehicle only (V), estradiol (E), (±)-Z-BDDA, or (+)-Z-BDDA. Each animal in group V received a daily 0.1 cc injection of a 10% ethanol-90% olive oil solution; the other treatments received their respective compound as a daily 0.1 cc injection, e.g., 2.5 μg of compound/g of body weight, in a 10% ethanol-90% olive oil solution. A temperature of 21° C. and an artificial 12-h light-dark cycle was maintained in the animal room. All animals were maintained on standard chow in powdered form for four weeks, then sacrificed after an overnight fast under i.p. pentobarbital anesthesia (50 mg/kg). Animal weight and food intake were measured weekly during the study, and the subsequent food-efficiency ratio [FER(g of weight change/g of food intake)] was determined. During sacrifice, blood was collected (via cardiac puncture) for cholesterol measurements. Immediately following sacrifice the fat pads and reproductive organs were removed and weighed.
as §1

[7] = in vivo assays, compared with estradiol; cited from earlier work
[8] = female rats, 2.5 ug/g of body weight daily, six weeks, mean ± SEM
[9] = male rats, 2.5 ug/g of body weight daily, five weeks, mean ± SEM
[10] = female rats, 2.5 ug/g of body weight daily
[11] = male rats, 2.5 ug/g of body weight daily

## CC[C@@H](c1ccc2cc(OC)ccc2c1)C(C)(C)C(=O)O [compound 2, (−)-3-[2-(6-methoxynaphthyl)]-2,2-dimethyl-pentanoic acid]
women
  estrogenic response in women / humans: high dosages were required to elicit strong estrogenic responses
[1]
  estrogenic activity (estrogenicity) in animals: strongest estrogenic activity; also recorded: highly estrogenic in animals, equivalent to 17β-estradiol
[2]
  MCF-7 cell proliferation (estrogenicity): very little effect

## (±)-Z-bisdehydrodoisynolic acid [(±)-Z-BDDA]
[3]
  binding affinity as fraction of that of E2: 0.01-0.03
[4]; female rats (uterus), 2.5 ug/g of body weight daily, six weeks, mean ± SEM
  Uterus/testis weight (g): 4.25 ± 1.04^1 g
[4]; [8]
  Blood glucose: 80.40 ± 5.66 mg/dL
  FER (food efficiency ratio): 0.017 ± 0.003^1,2
  Food intake: 704.0 ± 51.7 g
[4]; female rats, both experiments (FIGS. 2 and 3), 2.5 μg/g daily
  weight gain (percent weight change): repress weight gain slightly more than did (+)-Z-BDDA and E2
[4]; male rats (testis), 2.5 ug/g of body weight daily, five weeks, mean ± SEM
  Uterus/testis weight (g): 0.78 ± 0.02^1 g
[4]; male rats, 2.5 μg/g daily, compared to the vehicle
  testosterone: less pronounced
[4]; [9]
  Blood glucose: 98.60 ± 14.00 mg/dL
  FER (food efficiency ratio): −0.04 ± 0.01^1,2
  Prostate weight: 0.16 ± 0.02 g
  Food intake: 530.0 ± 33.0 g
Female mice
  rate of weight gain: diminished
[5]
  toxicity and carcinogenicity: neither toxicity nor carcinogenicity
[6]; female rats (uterus), 2.5 ug/g of body weight daily
  Uterus/testis weight (g): 2.04 ± 0.45^1 g
[6]; female rats, 2.5 ug/g of body weight daily injection
  Food intake: 318.2 ± 21.8 g
[6]; female rats, 2.5 ug/g of body weight daily, g of weight change/g of food intake
  FER (food efficiency ratio): −0.023 ± 0.027^1
[6]; [10]
  Cholesterol (mg/dl): 30.1 ± 2.8^1 mg/dl
  Visceral fat: 1.3 ± 0.1 g
[6]; male rats (testis), 2.5 ug/g of body weight daily
  Uterus/testis weight (g): 0.72 ± 0.06^1,2 g
[6]; [11]
  Cholesterol (mg/dl): 36.2 ± 2.6^1,2 mg/dl
  FER (food efficiency ratio): −0.099 ± 0.009^1,2
  Prostate weight (g): 0.08 ± 0.02^1,2 g
  Visceral fat (g): 4.5 ± 0.4^2 g
  Food intake: 344.6 ± 15.5 g
[2]
  MCF-7 cell proliferation (estrogenicity): high estrogenic potency
[7]
  estrogenicity: vaginal cornification and uterotropism: rivaling or even surpassing estradiol
